These are literature values, as cited in US20230149425A1, “PROCESS AND THERAPEUTIC COMPOSITION FOR TREATING AND PREVENTING SEVERE INJECTION SITE REACTIONS” (Brii Biosciences, Inc., priority 2021, published 2023).

The conditions of data set [1]: lactating women.
The conditions of data set [2]: oral.

On to `CC(=O)[C@H]1CC[C@H]2[C@@H]3CC[C@H]4C[C@H](O)CC[C@]4(C)[C@H]3CC[C@]12C` [brexanolone, 5α-pregnane-3α-ol-20-one], for which, in data set [1], the “concentrations in milk and plasma” value is “low”; the “risk to breastfed infants” value is reported as “low risk”.
As for `C[C@@]1(O)CC[C@H]2[C@H](CC[C@@H]3[C@@H]2CC[C@]2(C)[C@@H](C(=O)Cn4cc(C#N)cn4)CC[C@@H]32)C1` [SAGE-217], the “reduction of depressive symptoms in clinical trials” value in data set [2] (administration for 14 days) is “mixed results”. Moreover, in data set [2] (clinical trials), the “adverse events versus placebo” value is on record as “more adverse events than the placebo”.
Consider `C[C@]12CCC(=O)C=C1CC[C@@H]1[C@@H]2C(=O)C[C@@]2(C)[C@H]1CC[C@]2(O)C(=O)CO` [cortisone], for which the “safety and pain relief of injection in lactating women” value was “safe and efficient for pain relief”.
